Consider 39 compounds from PubChem BioAssay AID1259246 (Broad Institute, 2017).

Each structure is given as a SMILES string. Inconclusive results are not listed. The source made the active and inactive calls.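 The calls were made as follows: active = valid dose-response fit whose half-maximal growth-inhibiting concentration is at or below a set limit above the top tested dose; inconclusive = flat fit with effect between 30 and 70%, or poor fit; inactive = half-maximal concentration above a set limit.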

A short description of the first assay: antibacterial activity against Clostridioides difficile – 10-point retest, dose response (AID 1259246). As to conditions: Clostridioides difficile clinical isolate growth, OD600, 24 h; at 60 µM (top of the series).
In the case of `O=C(C[C@H]1C[C@@H]2c3cc(NC(=O)C4CCC4)ccc3O[C@@H]2[C@@H](CO)O1)NCc1ccncc1`, the activity change, negative = inhibition was -0.413% (inactive).

For the compound `C[C@@H]1CN([C@H](C)CO)C(=O)Cc2cc(NC(=O)CCCN(C)C)ccc2O[C@@H]1CN(C)Cc1ccc(-c2ccccc2)cc1`, the activity change, negative = inhibition was 28.6% (inactive).

`C[C@@H]1CN([C@H](C)CO)C(=O)c2cc(C#CCc3ccccc3)cnc2O[C@H]1CN(C)CC1CCCC1`: the activity change, negative = inhibition is 19.2% (inactive).

The same assay, now with this note: Clostridioides difficile clinical isolate growth, OD600, 24 h; at 68 µM (top of the series).
For the compound `C[C@@H]1CN([C@@H](C)CO)C(=O)c2cccc(NC(=O)Nc3ccc(C(F)(F)F)cc3)c2O[C@H]1CN(C)S(=O)(=O)c1ccc(Cl)cc1`, the activity change, negative = inhibition was 12.7% (inactive).

The same assay, now with this note: Clostridioides difficile clinical isolate growth, OD600, 24 h; at 110 µM (top of the series).
Consider `O=C(C[C@@H]1CC[C@H]2[C@@H](COC[C@H](O)CN2S(=O)(=O)c2ccc(Cl)cc2)O1)NCc1ccc(Cl)c(Cl)c1`, for which the activity change, negative = inhibition was 55.9% (inactive).

The same assay, now with this note: Clostridioides difficile clinical isolate growth, OD600, 24 h; at 120 µM (top of the series).
As to `C[C@H](CO)N1C[C@H](C)[C@@H](CN(C)C(=O)Nc2cccc3ccccc23)Oc2ccc(NC(=O)CCN3CCOCC3)cc2C1=O`, the activity change, negative = inhibition is 38.8% (inactive).

Turning to `C[C@H]1CN([C@@H](C)CO)C(=O)c2cccc(NC(=O)Nc3ccc(C(F)(F)F)cc3)c2O[C@@H]1CN(C)Cc1ccc2c(c1)OCO2`, the activity change, negative = inhibition is 34.1% (inactive).

With `C[C@H](CO)N1C[C@H](C)[C@@H](CN(C)C(=O)Nc2ccc(F)cc2)OCCCC[C@H](C)Oc2ccc(NC(=O)Nc3cccc4ccccc34)cc2C1=O`, the activity change, negative = inhibition was 40.4% (inactive).

As to `C[C@@H]1CN([C@H](C)CO)S(=O)(=O)c2ccc(C#CCN(C)C)cc2O[C@@H]1CN(C)Cc1ccc2c(c1)OCO2`, the activity change, negative = inhibition is 0.003% (inactive).

Consider `Cc1ccc(S(=O)(=O)N[C@H]2CC[C@H](CCNC(=O)c3ccc4c(c3)OCO4)O[C@H]2CO)cc1`, for which the activity change, negative = inhibition is -3.6% (inactive).

Consider `CO[C@H]1CN(C)C(=O)c2ccc(NC(=O)c3ccc(-c4ccccc4)cc3)cc2OC[C@H](C)NC[C@@H]1C`, for which the activity change, negative = inhibition is 5.28% (inactive).

With `C[C@@H]1CN([C@@H](C)CO)S(=O)(=O)c2ccc(/C=C/c3ccccc3)cc2O[C@H]1CN(C)C(=O)c1ccccc1`, the activity change, negative = inhibition was 18.9% (inactive).

For the compound `CO[C@@H]1CN(C)C(=O)c2ccc(NC(=O)c3nc4ccccc4s3)cc2OC[C@@H](C)N(Cc2ccncc2)C[C@@H]1C`, the activity change, negative = inhibition was 14.1% (inactive).

Take `CNC[C@H]1Oc2ccc(N)cc2CC(=O)N([C@H](C)CO)C[C@H]1C`: the activity change, negative = inhibition was -8.02% (inactive).

Consider `C[C@H](CO)N1C[C@H](C)[C@H](CN(C)Cc2ccc(C(=O)O)cc2)Oc2cc(/C=C/c3ccccc3)ccc2S1(=O)=O`, for which the activity change, negative = inhibition is -7.29% (inactive).

For `C[C@@H]1CN([C@@H](C)CO)C(=O)Cc2cc(N(C)C)ccc2O[C@@H]1CN(C)Cc1ccc(-c2ccccc2)cc1`, the activity change, negative = inhibition is 30.2% (inactive).

For the compound `C[C@@H]1CN([C@@H](C)CO)C(=O)c2cccc(NC(=O)Nc3ccc(C(F)(F)F)cc3)c2O[C@H]1CN(C)S(=O)(=O)c1ccc(Cl)cc1`, the activity change, negative = inhibition was 50.7% (inactive).

On to `COc1cccc(NC(=O)N(C)C[C@@H]2Oc3cc(/C=C/c4ccccc4)ccc3S(=O)(=O)N([C@@H](C)CO)C[C@H]2C)c1`, for which the activity change, negative = inhibition was 19.6% (inactive).

Consider `C[C@H](CO)N1C[C@H](C)[C@@H](CN(C)C(=O)Nc2ccccc2)OCCCC[C@H](C)Oc2ccc(NC(=O)Nc3cccc4ccccc34)cc2C1=O`, for which the activity change, negative = inhibition is 20.2% (inactive).

Consider `CNC[C@@H]1Oc2ccc(NC(=O)CCCN(C)C)cc2CC(=O)N([C@@H](C)CO)C[C@H]1C`, for which the activity change, negative = inhibition was -5.36% (inactive).

As for `C[C@@H]1CN([C@@H](C)CO)C(=O)c2cc(NC(=O)Nc3cccc4ccccc34)ccc2O[C@@H](C)CCCCO[C@H]1CN(C)S(=O)(=O)c1ccc(F)cc1`, the activity change, negative = inhibition was 34.1% (inactive).

In the case of `C[C@@H]1CN([C@H](C)CO)C(=O)c2cc(NC(=O)Nc3cccc4ccccc34)ccc2O[C@@H](C)CCCCO[C@@H]1CN(C)S(=O)(=O)c1ccc(F)cc1`, the activity change, negative = inhibition was 12% (inactive).

On to `C[C@H](CO)N1C[C@H](C)[C@@H](CN(C)C(=O)Nc2ccc(C(F)(F)F)cc2)Oc2c(NC(=O)Nc3cccc4ccccc34)cccc2C1=O`, for which the activity change, negative = inhibition was 36.8% (inactive).

Consider `CC(C)CC#Cc1ccc2c(c1)O[C@H](CN(C)Cc1ccc3c(c1)OCO3)[C@H](C)CN([C@H](C)CO)S2(=O)=O`, for which the activity change, negative = inhibition was 15.4% (inactive).

As for `O=C(C[C@H]1C[C@H]2c3cc(NC(=O)C4CCC4)ccc3O[C@H]2[C@H](CO)O1)NCc1ccc(Cl)cc1`, the activity change, negative = inhibition was 6.93% (inactive).

Regarding `C[C@@H]1CN([C@@H](C)CO)S(=O)(=O)c2ccc(C#CCN(C)C)cc2O[C@@H]1CN(C)Cc1ccc(F)cc1`, the activity change, negative = inhibition was 4.72% (inactive).

With `O=C(C[C@H]1C[C@H]2c3cc(NC(=O)Nc4ccc(F)cc4)ccc3O[C@H]2[C@H](CO)O1)NC1CCCCC1`, the activity change, negative = inhibition was 2.71% (inactive).

`CNC[C@H]1Oc2ccc(NC(=O)C3CC3)cc2CC(=O)N([C@H](C)CO)C[C@H]1C`: the activity change, negative = inhibition was -1.55% (inactive).

With `C/C=C/c1ccc2c(c1)O[C@H](CN(C)CC1CCOCC1)[C@H](C)CN([C@@H](C)CO)S2(=O)=O`, the activity change, negative = inhibition is -1.64% (inactive).

Consider `COc1ccccc1S(=O)(=O)N(C)C[C@@H]1Oc2cc(/C=C/c3ccccc3)ccc2S(=O)(=O)N([C@@H](C)CO)C[C@H]1C`, for which the activity change, negative = inhibition was 32.3% (inactive).

Still in this assay, the particulars now being: Clostridioides difficile clinical isolate growth, OD600, 24 h; at 135 µM (top of the series).
`CNC[C@H]1Oc2ccc(NC(=O)C3CC3)cc2CC(=O)N([C@@H](C)CO)C[C@H]1C`: the activity change, negative = inhibition was -0.275% (inactive).

Regarding `C[C@@H]1CN([C@@H](C)CO)C(=O)Cc2cc(NS(C)(=O)=O)ccc2O[C@@H]1CN(C)Cc1ccc(Oc2ccccc2)cc1`, the activity change, negative = inhibition was 7.12% (inactive).

Take `CO[C@H]1CN(C)C(=O)c2cc(NC(=O)c3nc4ccccc4s3)ccc2OC[C@H](C)N(Cc2ccncc2)C[C@H]1C`: the activity change, negative = inhibition was 20.9% (inactive).

Consider `C[C@@H]1CN([C@H](C)CO)C(=O)Cc2cc(NC(=O)CCC(F)(F)F)ccc2O[C@H]1CN(C)Cc1ccc(Oc2ccccc2)cc1`, for which the activity change, negative = inhibition is 25.5% (inactive).

As for `C[C@H]1CN([C@@H](C)CO)C(=O)Cc2cc(NC(=O)CCCN(C)C)ccc2O[C@@H]1CN(C)Cc1ccc(-c2ccccc2)cc1`, the activity change, negative = inhibition was -3.4% (inactive).

For the compound `CNC[C@H]1Oc2c(N)cccc2C(=O)N([C@H](C)CO)C[C@@H]1C`, the activity change, negative = inhibition is -1.95% (inactive).

For the compound `O=C(C[C@@H]1C[C@H]2c3cc(NC(=O)C4CCC4)ccc3O[C@H]2[C@@H](CO)O1)NCc1ccc(Cl)cc1`, the activity change, negative = inhibition is 6.13% (inactive).

Consider `C[C@@H]1CN([C@H](C)CO)C(=O)Cc2cc(NS(=O)(=O)c3ccccc3)ccc2O[C@@H]1CN(C)Cc1ccc(-c2ccccc2)cc1`, for which the activity change, negative = inhibition is 31.9% (inactive).

On to `O=C(C[C@H]1C[C@H]2c3cc(NC(=O)Nc4ccc(F)cc4)ccc3O[C@H]2[C@@H](CO)O1)NC1CCCCC1`, for which the activity change, negative = inhibition was -1.5% (inactive).

In the case of `C[C@@H]1CN([C@H](C)CO)C(=O)c2cc(NC(=O)Nc3cccc4ccccc34)ccc2O[C@@H](C)CCCCO[C@H]1CN(C)C(=O)c1ccccc1`, the activity change, negative = inhibition was 14.9% (inactive).
